The source of these data is PMC7732128, “Regulation of gene transcription by thyroid hormone receptor β agonists in clinical development for the treatment of non-alcoholic steatohepatitis (NASH)” (PLoS ONE, 2020).

Where two headings read alike, the source gives them in different places.

The subject of test [1] is THR (ANGPTL4, CPT1A, DIO1 RNA in Huh-7 cells). The test is described as follows: Differential gene expression assay in Huh-7 cells. The conditions noted are these: Homo sapiens. The test is classed as cell-based, human. How it is done: Hepatoma-derived Huh-7 cells (JCRB Cell Bank, JCRB0403) were obtained directly from the repository, which performed cell line authentication via isozyme analysis and comprehensively tested for microbial contamination, viral contamination, and cross culture contamination. Cells were routinely cultured in DMEM (Corning, 10-013-CM) supplemented with 10% FBS and 1% P/S at 37°C and 5% CO2 until 80–90% confluency. Cells were then detached with 0.05% trypsin (Corning, 25-052-CV), resuspended in TH-free medium (DMEM supplemented with 10% TH-depleted FBS and 1% P/S), and seeded into collagen-coated, 96-well microplates (Corning, 354407) at 5.0 x 10^4 cells/well. After 24 hrs, the culture medium was replaced with treatment media. Cells were treated for 24 hrs. TH-depletion of the FBS via resin treatment was accomplished as previously described. All treatment media were made by mixing test compounds, serially diluted in DMSO, with TH-free medium (0.1% final DMSO concentration).
After 24 hrs in treatment media, both Huh-7 cells and PHH were processed with the TaqMan Fast Advanced Cells-to-Ct Kit (Invitrogen, A35378), according to the manufacturer’s protocol. Briefly, the treatment media was removed and the cells were washed with 50 μL cold 1X phosphate-buffered saline (Corning, 21-040-CM). Fifty μL lysis buffer containing DNase I was added to each well and the plate was incubated on a rotor at RT for 5 mins. Five μL stop solution was then added to each well and after another 2 mins incubation on a rotor at RT, the cell lysates were used for reverse transcription. The resulting cDNA was diluted 1:2 with nuclease-free, distilled water (Invitrogen, 10977015). Gene expression was measured using TaqMan Fast Advanced Master Mix (Applied Biosystems, 4444964) and the following TaqMan Gene Expression assays (Applied Biosystems, 4331182): 18S (Hs99999901_s1), ACTB (Hs01060665_g1), ANGPTL4 (Hs01101123_g1), CPT1A (Hs00912671_m1), DIO1 (Hs00174944_m1), TFG (Hs02832013_g1), THRA (Hs00268470_m1), and THRB (Hs00230861_m1). ACTB and TFG served as control housekeeping genes for Huh-7 assays and 18S and ACTB for PHH assays. Ten μL reactions were run on the qTOWER³ 84 (Analytik Jena). Relative quantification (RQ) of gene expression was calculated via the 2^−ΔΔCt method and dose-response curves were fitted by non-linear regression with variable slope. Statistical analysis was performed in GraphPad Prism 8.
We aimed to develop an in vitro, cell-based assay that is not only amenable to high throughput screening of compounds, but that can also more reliably recapitulate in vivo processes. Because activated THR may function as a transcription factor, we compared the action of THR agonists in a human hepatocyte-derived cell line and in primary human hepatocytes (PHH) by quantifying transcriptional changes resulting from compound treatment (Fig 2A). Cells were cultured in TH-depleted media for 24 hrs and then treated with compounds for 24 hrs. The RNA levels of THR target genes were then measured via RT-qPCR.

Test [2] deals with THR (THRSP RNA in PHH). The test is described as follows: Differential gene expression assay in primary human hepatocytes (PHH). The class given is cell-based. The following applies: Hepatocyte, RT-qPCR, 24 hrs treatment, read-out: PHH EC50 Mean ± SEM. In general terms: In qPCR the cycle at which signal appears reflects the starting amount.
For test [3], the system named is HFD fed rats. Put plainly: High-fat diet fed rat study: serum and hepatic lipid levels. The class given is in vivo. The conditions noted are these: 0.5 mg/kg I.P. single dose. How it is done: Animals were purchased from Vital River Laboratory Animal Technology Co. Ltd. and experiments were conducted at Covance Pharmaceutical R&D (Shanghai) Co., Ltd. (China). Animals were group-housed in polycarbonate cages with corncob bedding under controlled temperature (21–25°C), humidity (40–70%), and a 12-hr light/dark cycle. All procedures performed were in compliance with local animal welfare legislation, Covance global policies and procedures, and the Guide for the Care and Use of Laboratory Animals.
Eighty-four male Sprague Dawley rats, approximately 8 to 11 weeks of age, were fed with either a normal diet, ND (D12450K: 10 kcal% fat, no sucrose), or high-fat diet, HFD (D12109C: 40 kcal% fat, 1.25 gm% cholesterol, 0.5 gm% sodium cholate, 12.5 gm% sucrose). After 12 days of diet consumption, baseline serum total cholesterol and low-density lipoprotein cholesterol (LDL-C) levels were measured with the cobas 6000 c501 Chemistry Analyzer (Roche) to confirm hypercholesterolemia in the HFD fed rats. Animals were then randomized into treatment groups.
Twenty-four hrs after dosing, animals were euthanized by CO2 inhalation and serum and plasma were collected along with liver tissue. Serum total cholesterol and LDL-C levels were determined as described above. […] Caudate lobes of the liver were used for analysis of hepatic total cholesterol (Abcam, ab65390) and triglyceride levels (Abcam, ab65336) via enzyme-linked immunosorbent assay. Right lateral lobes were stored in RNAlater (Invitrogen, AM7020) at -70°C until homogenization with the Scientz-48 TissueLyser LT for downstream gene expression analysis. RNA extraction was performed at WuXi AppTec (Hong Kong) Limited (China) with the RNeasy Mini Kit (Qiagen, 74106) and RNA concentration and quality was determined using the Nanodrop 2000 (Thermo Scientific); additional quality control was assessed with agarose gel electrophoresis. One μg total RNA from each sample was then reverse-transcribed using the High Capacity cDNA Reverse Transcription kit (Applied Biosystems, 4368814) and the resulting cDNA was diluted 1:5 with nuclease-free, distilled water. Gene expression was measured using TaqMan Fast Advanced Master Mix and the following TaqMan Gene Expression assays: Actb (Rn00667869_m1), Cpt1a (Rn00580702_m1), Dio1 (Rn00572183_m1), Me1 (Rn00561502_m1), Rplp1 (Rn03467157_gH), and Thrsp (Rn01511034_m1). Actb and Rplp1 served as control housekeeping genes. Ten μL reactions were run on the qTOWER³ 84. Relative quantification (RQ) of gene expression was calculated via the 2^−ΔΔCt method and statistical analysis was performed in GraphPad Prism 8.0 and Microsoft Excel.

Where [4] appears, read: Huh-7, CPT1A RNA, RT-qPCR, 24 hrs treatment, read-out: Huh-7 EC50 Mean ± SEM.
Setting [5] is: Huh-7, 24 hrs, n = 2 (Fig 2C), read-out: mean EC50, ANGPTL4.
Where [6] appears, read: Huh-7, 24 hrs, n = 2 (Fig 2C), read-out: mean EC50, CPT1A.
[7] abbreviates: Huh-7, 24 hrs, n = 2 (Fig 2C), read-out: mean EC50, DIO1.

For `N[C@@H](Cc1cc(I)c(Oc2ccc(O)c(I)c2)c(I)c1)C(=O)O` [T3, triiodothyronine], the EC50 in test [1] (setting [4]) worked out at […]; in test [1] (setting [5]), […]; in test [1] (setting [6]), […]; in test [1] (setting [7]) it was […]; in test [2], […]. The “decrease in serum total cholesterol (pre-dose vs 24 hrs post-dose)” value in test [3] amounted to 68.2%. For the same compound, the “decrease in serum triglyceride levels (pre-dose vs 24 hrs post-dose)” value in test [3] amounted to 71.2%.

Consider `Cc1cc(OCC(=O)O)cc(C)c1Cc1ccc(O)c(C(C)C)c1` [GC-1, sobetirome], for which the EC50 amounted to […] in test [1] (setting [4]); […] in test [1] (setting [5]); […] in test [1] (setting [6]); […] in test [1] (setting [7]); […] in test [2].

The term EC50 denotes the concentration at which the effect is half-maximal.
